Data set [1] has as its target T1, Alcohol dehydrogenase (ADH) (Saccharomyces cerevisiae, UniProt P00330).
T1 construct: gene ADH1
T1 sequence (P00330 2-348): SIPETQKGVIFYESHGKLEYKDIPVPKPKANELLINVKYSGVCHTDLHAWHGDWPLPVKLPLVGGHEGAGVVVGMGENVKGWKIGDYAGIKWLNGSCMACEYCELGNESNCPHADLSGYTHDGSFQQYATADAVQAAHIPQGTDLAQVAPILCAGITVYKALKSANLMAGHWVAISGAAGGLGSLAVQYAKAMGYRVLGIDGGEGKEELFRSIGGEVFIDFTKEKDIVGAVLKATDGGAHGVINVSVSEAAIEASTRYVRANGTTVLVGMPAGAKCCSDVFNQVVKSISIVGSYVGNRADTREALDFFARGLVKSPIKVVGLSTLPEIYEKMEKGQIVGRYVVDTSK
In words: NADH absorbance at […] nm, immobilized ADH nanoflowers, % inhibition at […] (weak). In kind it is biochemical.

Data set [2] concerns the target T1, Alcohol dehydrogenase (ADH). In words: NADH absorbance at […] nm, immobilized ADH nanoflowers, % inhibition at […]. In kind it is biochemical.
Data set [3] shares this target. As to the kind of experiment: NADH absorbance at […] nm, dose-response; free ADH (IC50 […] on immobilized ADH HNFs). The data set is classed as biochemical.
Substrate in data set [4]: NC(=O)c1ccc[n+]([C@@H]2O[C@H](COP(=O)([O-])OP(=O)(O)OC[C@H]3O[C@@H](n4cnc5c(N)ncnc54)[C@H](O)[C@@H]3O)[C@@H](O)[C@H]2O)c1
In words: purified protein. The data set is classed as biochemical, Saccharomyces cerevisiae. As to conditions: Zn2+.

In general, inhibition refers to the percentage by which the read-out fell short of the control. `Oc1cc(O)c2c(c1)O[C@H](c1ccc(O)c(O)c1)[C@@H](O)C2` [Cianidanol] returned an inhibition at 1500 µM in data set [1] of 34.9 ± 4%.

As for `O=c1cc(-c2ccc(O)cc2)oc2cc(O)cc(O)c12` [apigenin], in data set [2] (read-out: Inhibition (%)), the inhibition at 1500 µM was 52.5 ± 5.5%. For `O=c1oc2c(O)c(O)cc3c(=O)oc4c(O)c(O)cc1c4c23` [ellagic acid], the inhibition at 1500 µM in data set [2] (read-out: Inhibition (%)) was 58.2 ± 10.3%. On the same count and under the same terms, with `O=C(O)c1cc(O)c(O)c(O)c1` [gallic acid] the figure was 61.9 ± 2.8%.

In turn, `O=C1C[C@@H](c2ccc(O)cc2)Oc2cc(O)cc(O)c21` [naringenin] showed an inhibition at 1500 µM in data set [2] of 75.5 ± 2.1%. Still for that read-out and setting: with `O=C(O)c1ccc(O)c(O)c1` [protocatechuic acid] the figure was 68.3 ± 2.9%. One may read the IC50 as the concentration at which inhibition is half-maximal. The low end stands for greater potency, the high end for weaker potency. The molecule `CNC(=C[N+](=O)[O-])NCCSCc1ccc(CN(C)C)o1` [ranitidine] yielded an IC50 in data set [3] of 390 µM. For `COc1cc(C(=O)O)ccc1O` [vanillic acid], the inhibition at 1500 µM in data set [2] is 55.1 ± 1%.

B1: Alcohol dehydrogenase (ADH) (Saccharomyces cerevisiae S288C) (protein)
chain: SIPETQKGVIFYESHGKLEYKDIPVPKPKANELLINVKYSGVCHTDLHAWHGDWPLPVKLPLVGGHEGAGVVVGMGENVKGWKIGDYAGIKWLNGSCMACEYCELGNESNCPHADLSGYTHDGSFQQYATADAVQAAHIPQGTDLAQVAPILCAGITVYKALKSANLMAGHWVAISGAAGGLGSLAVQYAKAMGYRVLGIDGGEGKEELFRSIGGEVFIDFTKEKDIVGAVLKATDGGAHGVINVSVSEAAIEASTRYVRANGTTVLVGMPAGAKCCSDVFNQVVKSISIVGSYVGNRADTREALDFFARGLVKSPIKVVGLSTLPEIYEKMEKGQIVGRYVVDTSK
A word on the Km: it is the substrate concentration at which the rate is half of its maximum. On to B1, for which the Km in data set [4] stood at 5.33 mM.
